Some test systems named below: T47D; SK-MEL-5; SR; KM12; OVCAR-8; NCI-H226; M14; OVCAR-3; SW-620; HOP-92; HT-29; U-251; SK-MEL-28; RXF 393; DU-145; A498; NCI-H23; HL-60; SK-MEL-2; SNB-75.
Experiment in all cases: inhibition of tumour cell growth, NCI panel, 48 h

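Protocol summary: plate cells (96-well), add compound at 5 concentrations, incubate 48 h, interpolate endpoints linearly. Here, GI50 denotes the concentration required for 50% inhibition of growth.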 Calls of active or inactive are those of the source. Rule as the data show it: active = GI50 up to about 1.1 µM and inactive = higher. Residues, ends and D or L forms follow the SMILES beside them. *: point of attachment. Boc = CC(C)(C)OC(=O)*; OBn = c1ccc(CO*)cc1 Where only a bound is given, the exact number is not on record here.

As to `C=C1C(=O)[C@@]23CC[C@@H]4[C@@]5(C)CCC[C@@]4(OC5=O)[C@@]2(C)CC[C@@H]1C3`, the GI50 in the assay on T47D was 4.89 µM (inactive); in the assay with SK-MEL-5, 0.962 µM (active); with SR it was 0.955 µM (active); in the assay on KM12 it was 2.59 µM (inactive); in the assay on OVCAR-8 it was 2.3 µM (inactive); with NCI-H226 it was 2.08 µM (inactive). For the same compound, the GI50 in the assay with M14 was 2.17 µM (inactive); with OVCAR-3 it was 1.78 µM (inactive); in the assay with SW-620, 0.667 µM (active); with HOP-92, 4.48 µM (inactive); with HT-29, 0.802 µM (active); in the assay with U-251, 1.97 µM (inactive). The GI50 in the assay on SK-MEL-28 was 2.74 µM (inactive); with RXF 393, 1.01 µM (active); in the assay with DU-145 it was 3.78 µM (inactive); in the assay on A498 it was 3.24 µM (inactive); in the assay on NCI-H23, 1.94 µM (inactive); in the assay on HL-60, 0.484 µM (active). Further, the GI50 in the assay on SK-MEL-2 is 2.13 µM (inactive); in the assay on SNB-75, 2.8 µM (inactive).
With `NNC(=O)CCC(NS(=O)(=O)c1ccc(Cl)cc1)C(=O)NN` (configuration not stated), the GI50 with T47D, in the assay with SK-MEL-5, with SR, in the assay on KM12, in the assay with OVCAR-8 and in the assay with NCI-H226 was > 100 µM (inactive) throughout. Besides, the GI50 with M14, with OVCAR-3, in the assay with SW-620, in the assay with HOP-92, in the assay with HT-29 and in the assay on U-251 was > 100 µM (inactive) in each case. The GI50 in the assay on SK-MEL-28, in the assay on RXF 393, with DU-145, with A498, in the assay on NCI-H23 and in the assay with HL-60 was > 100 µM (inactive) throughout. Further, the GI50 in the assay on SK-MEL-2 and in the assay with SNB-75 was > 100 µM (inactive) throughout.
As to `O=C(O)CCC(NC(=O)c1ccc(Oc2nc3ccccc3nc2-c2ccccc2)cc1)C(=O)O` (configuration not stated), the GI50 with T47D, in the assay with SR, in the assay with KM12, in the assay on OVCAR-8, with NCI-H226 and in the assay on M14 was > 100 µM (inactive) in each case. For the same compound, the GI50 in the assay on OVCAR-3, in the assay with SW-620, in the assay on HOP-92, with HT-29, in the assay with U-251 and in the assay on SK-MEL-28 was > 100 µM (inactive) each time. Moreover, the GI50 in the assay with RXF 393, with DU-145, in the assay with A498, in the assay on NCI-H23, in the assay with HL-60 and in the assay on SK-MEL-2 was > 100 µM (inactive) throughout. In the assay on SNB-75, the GI50 is > 100 µM (inactive).
For `O=C1C(NCCc2cc(Br)c(O)c(Br)c2)=CC(=O)c2ncccc21`, the GI50 with T47D was 13.5 µM (inactive); in the assay with SK-MEL-5, 1.47 µM (inactive); with SR it was 1.87 µM (inactive); with KM12 it was 4.43 µM (inactive); with OVCAR-8, 3.85 µM (inactive); with NCI-H226, 2.29 µM (inactive). The GI50 in the assay on M14 was 2.51 µM (inactive); in the assay on OVCAR-3 it was 1.84 µM (inactive); in the assay on SW-620 it was 4.24 µM (inactive); in the assay on HOP-92, 28.1 µM (inactive); in the assay with HT-29, 3.63 µM (inactive); in the assay with U-251 it was 5.55 µM (inactive). The GI50 in the assay on SK-MEL-28 was 3.21 µM (inactive); in the assay with RXF 393, 7.93 µM (inactive); in the assay on DU-145, 3.66 µM (inactive); with A498, 4.08 µM (inactive); in the assay on NCI-H23, 0.659 µM (active); with HL-60 it was 2.32 µM (inactive). Moreover, the results for the GI50 in the assay with SK-MEL-2 and with SNB-75 were 8.07 µM (inactive) and 1.31 µM (inactive), respectively.
For the compound `CC(C)=CCOc1cc(NC(=S)c2ccsc2C)ccc1Cl`, the GI50 with T47D was 1.64 µM (inactive); with SK-MEL-5, 36.1 µM (inactive); in the assay on SR, 18.7 µM (inactive); in the assay on KM12 it was > 100 µM (inactive); with OVCAR-8, 44.4 µM (inactive); with NCI-H226, 13.5 µM (inactive). In addition, the GI50 in the assay on OVCAR-3 is 14.1 µM (inactive); in the assay with SW-620, > 100 µM (inactive); in the assay on HOP-92, 5.87 µM (inactive); in the assay on HT-29 it was > 100 µM (inactive); in the assay on U-251 it was 20.7 µM (inactive); with SK-MEL-28 it was > 100 µM (inactive). Besides, the GI50 in the assay on RXF 393 is 27.9 µM (inactive); in the assay on DU-145 it was 75.9 µM (inactive); with A498 it was 27.3 µM (inactive); in the assay with NCI-H23, 17.1 µM (inactive); in the assay on HL-60, 44.1 µM (inactive); with SK-MEL-2, 27.4 µM (inactive). Moreover, in the assay with SNB-75, the GI50 is 14.1 µM (inactive).
Regarding `COc1nc2ncc([C@@H](O)[C@H](O)CO)nc2c(=O)n1C`, the GI50 in the assay on T47D, in the assay on SK-MEL-5, in the assay with SR, in the assay with KM12, in the assay on OVCAR-8 and with NCI-H226 was > 100 µM (inactive) in each case. In addition, the GI50 in the assay on M14, with OVCAR-3, in the assay with SW-620, with HOP-92, in the assay on HT-29 and in the assay with U-251 was > 100 µM (inactive) throughout. The GI50 in the assay with SK-MEL-28, with RXF 393, with DU-145, in the assay with A498, in the assay with HL-60 and in the assay with SK-MEL-2 was > 100 µM (inactive) throughout. For the same compound, the GI50 in the assay with SNB-75 was > 100 µM (inactive).
On to `C/C(Nc1ccc(F)cc1)=C1/CCOC1=O`, for which the GI50 in the assay with T47D is 63.2 µM (inactive); in the assay on SK-MEL-5, 12.9 µM (inactive); in the assay on SR it was > 100 µM (inactive); in the assay on KM12, 1.38 µM (inactive); in the assay with OVCAR-8, 17.3 µM (inactive); in the assay on NCI-H226 it was 91.6 µM (inactive). Moreover, the GI50 in the assay on OVCAR-3, in the assay on SW-620, in the assay on HOP-92, in the assay on HT-29, in the assay on U-251 and in the assay on SK-MEL-28 was > 100 µM (inactive) each time. The GI50 in the assay on RXF 393 is 4.73 µM (inactive); in the assay with DU-145 it was > 100 µM (inactive); in the assay on A498, > 100 µM (inactive); in the assay on NCI-H23, > 100 µM (inactive); in the assay with HL-60, 12.4 µM (inactive); with SNB-75, > 100 µM (inactive).
Take `Cc1ccccc1C(O)(c1nccn1C)c1nccn1C`: the GI50 in the assay on T47D, with SK-MEL-5, in the assay on SR, in the assay with KM12, in the assay on OVCAR-8 and with NCI-H226 was > 100 µM (inactive) each time. Further, the GI50 in the assay with M14, with OVCAR-3, in the assay with SW-620, in the assay with HOP-92, in the assay with HT-29 and in the assay with U-251 was > 100 µM (inactive) each time. Further, the GI50 with SK-MEL-28, with RXF 393, in the assay with DU-145, in the assay on A498, with HL-60 and in the assay with SK-MEL-2 was > 100 µM (inactive) in each case. Further, the GI50 in the assay on SNB-75 was > 100 µM (inactive).
Take `CSCC[C@H](NC(=O)[C@H](CC(C)C)NC(=O)[C@@H](Cc1ccccc1)NC(=O)CNC(=O)[C@@H](NC(=O)[C@H](C)NC(=O)[C@H](Cc1c[nH]c2ccccc12)NC(=O)[C@H](CCC(N)=O)NC(=O)[C@H](N)CC(N)=O)C(C)C)C(N)=O`: the GI50 in the assay on T47D is > 12.5 µM (inactive); in the assay on SK-MEL-5, > 12.5 µM (inactive); with SR, 0.0269 µM (active); in the assay with KM12, > 12.5 µM (inactive); in the assay with OVCAR-8, > 12.5 µM (inactive); in the assay on NCI-H226, > 12.5 µM (inactive). Further, the GI50 in the assay with M14, in the assay with OVCAR-3, in the assay on SW-620, in the assay on HOP-92, in the assay with HT-29 and in the assay on U-251 was > 12.5 µM (inactive) throughout. Besides, the GI50 in the assay with SK-MEL-28, in the assay on RXF 393, with DU-145, in the assay on A498, in the assay on NCI-H23 and with HL-60 was > 12.5 µM (inactive) each time. In addition, the GI50 in the assay on SNB-75 is > 12.5 µM (inactive).
Consider `CC(NC(=O)CNC(=O)OC(C)(C)C)C(=O)NC(Cc1ccccc1)C(=O)OCc1ccccc1` (stereo not drawn) (Boc-Gly-Ala-Phe-OBn; configuration not given here), for which the GI50 with T47D was > 100 µM (inactive); in the assay with SK-MEL-5, > 100 µM (inactive); in the assay on SR it was 23.8 µM (inactive); with KM12, > 100 µM (inactive); with OVCAR-8, > 100 µM (inactive); in the assay on NCI-H226, 75.7 µM (inactive). The GI50 in the assay with M14 was > 100 µM (inactive); with SW-620, > 100 µM (inactive); with HOP-92 it was > 100 µM (inactive); in the assay on HT-29 it was 95.9 µM (inactive); in the assay with U-251 it was > 100 µM (inactive); in the assay on SK-MEL-28 it was 36.5 µM (inactive). The GI50 with RXF 393 was > 100 µM (inactive); with DU-145 it was > 100 µM (inactive); with A498, > 100 µM (inactive); in the assay on NCI-H23, > 100 µM (inactive); in the assay on HL-60, 36.3 µM (inactive); with SK-MEL-2 it was > 100 µM (inactive). In addition, the GI50 in the assay with SNB-75 was 56.2 µM (inactive).
